From PubChem BioAssay (NCI)
Several values for one entry are separate records, joined by “and”; a condition that tells them apart may be missing. Equal entries are not always repeated.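 Grown in 96-well plates, cells were treated for 48 hours with each compound at five concentrations. Insufficient inhibition: endpoint recorded as highest concentration tested. GI50 marks 50% less growth. TGI marks complete inhibition of growth.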

How the values were obtained:
Test in all cases: NCI tumour cell line growth inhibition, 48 h; in the data active = GI50 below about 0.43 µM; inactive = the rest
786-0 renal = system: 786-0 renal
A549 NSCLC = system: A549 NSCLC
ACHN renal = system: ACHN renal
CAKI-1 renal = system: CAKI-1 renal
CCRF-CEM leukemia = system: CCRF-CEM leukemia
COLO 205 colon = system: COLO 205 colon
DLD-1 colon = system: DLD-1 colon
DMS 114 small cell lung = system: DMS 114 small cell lung
DMS 273 small cell lung = system: DMS 273 small cell lung
EKVX NSCLC = system: EKVX NSCLC
HCC-2998 colon = system: HCC-2998 colon
HCT-116 colon = system: HCT-116 colon
HCT-15 colon = system: HCT-15 colon
HL-60(TB) leukemia = system: HL-60(TB) leukemia
HOP-18 NSCLC = system: HOP-18 NSCLC
HOP-62 NSCLC = system: HOP-62 NSCLC
HOP-92 NSCLC = system: HOP-92 NSCLC
HT29 colon = system: HT29 colon
IGROV1 ovarian = system: IGROV1 ovarian
K-562 leukemia = system: K-562 leukemia
KM12 colon = system: KM12 colon
KM20L2 colon = system: KM20L2 colon
LOX IMVI melanoma = system: LOX IMVI melanoma
LXFL 529 NSCLC = system: LXFL 529 NSCLC
M19-MEL melanoma = system: M19-MEL melanoma
MALME-3M melanoma = system: MALME-3M melanoma
MOLT-4 leukemia = system: MOLT-4 leukemia
NCI-H226 lung = system: NCI-H226 lung
NCI-H23 lung = system: NCI-H23 lung
NCI-H460 lung = system: NCI-H460 lung
NCI-H522 lung = system: NCI-H522 lung
OVCAR-3 ovarian = system: OVCAR-3 ovarian
OVCAR-5 ovarian = system: OVCAR-5 ovarian
OVCAR-8 ovarian = system: OVCAR-8 ovarian
RPMI-8226 leukemia = system: RPMI-8226 leukemia
RXF 393 renal = system: RXF 393 renal
RXF-631 renal = system: RXF-631 renal
SF-268 CNS = system: SF-268 CNS
SF-295 CNS = system: SF-295 CNS
SF-539 CNS = system: SF-539 CNS
SK-MEL-2 melanoma = system: SK-MEL-2 melanoma
SK-MEL-28 melanoma = system: SK-MEL-28 melanoma
SK-MEL-5 melanoma = system: SK-MEL-5 melanoma
SK-OV-3 ovarian = system: SK-OV-3 ovarian
SN12C renal = system: SN12C renal
SNB-19 CNS = system: SNB-19 CNS
SR leukemia = system: SR leukemia
SW-620 colon = system: SW-620 colon
TK-10 renal = system: TK-10 renal
U251 CNS = system: U251 CNS
UACC-257 melanoma = system: UACC-257 melanoma
UACC-62 melanoma = system: UACC-62 melanoma
XF 498 CNS = system: XF 498 CNS
A498 renal = system: A498 renal
M14 melanoma = system: M14 melanoma
OVCAR-4 ovarian = system: OVCAR-4 ovarian
SNB-75 CNS = system: SNB-75 CNS
SNB-78 CNS = system: SNB-78 CNS
UO-31 renal = system: UO-31 renal
MCF7 breast = system: MCF7 breast
NCI/ADR-RES ovarian = system: NCI/ADR-RES ovarian
P388/ADR leukemia = system: P388/ADR leukemia
SN12K1 renal = system: SN12K1 renal

COC(=O)CC(c1ccccc1)C1(c2ccccc2)SCCS1 (configuration not stated)
> 290 µM: TGI (786-0 renal) | TGI (A549 NSCLC) | TGI (ACHN renal) | TGI (CAKI-1 renal) | TGI (CCRF-CEM leukemia) | TGI (COLO 205 colon) | TGI (DLD-1 colon) | TGI (DMS 114 small cell lung) | TGI (DMS 273 small cell lung) | TGI (EKVX NSCLC) | TGI (HCC-2998 colon) | TGI (HCT-116 colon) | TGI (HCT-15 colon) | TGI (HL-60(TB) leukemia) | TGI (HOP-18 NSCLC) | TGI (HOP-62 NSCLC) | TGI (HT29 colon) | TGI (IGROV1 ovarian) | TGI (K-562 leukemia) | TGI (KM12 colon) | TGI (KM20L2 colon) | TGI (LOX IMVI melanoma) | TGI (LXFL 529 NSCLC) | TGI (M19-MEL melanoma) | TGI (MALME-3M melanoma) | TGI (MOLT-4 leukemia) | TGI (NCI-H226 lung) | TGI (NCI-H23 lung) | TGI (NCI-H460 lung) | TGI (NCI-H522 lung) | TGI (OVCAR-3 ovarian) | TGI (OVCAR-5 ovarian) | TGI (OVCAR-8 ovarian) | TGI (RPMI-8226 leukemia) | TGI (RXF 393 renal) | TGI (RXF-631 renal) | TGI (SF-268 CNS) | TGI (SF-295 CNS) | TGI (SF-539 CNS) | TGI (SK-MEL-2 melanoma) | TGI (SK-MEL-28 melanoma) | TGI (SK-MEL-5 melanoma) | TGI (SK-OV-3 ovarian) | TGI (SN12C renal) | TGI (SNB-19 CNS) | TGI (SR leukemia) | TGI (SW-620 colon) | TGI (TK-10 renal) | TGI (U251 CNS) | TGI (UACC-257 melanoma) | TGI (UACC-62 melanoma) | TGI (XF 498 CNS)
187 µM: TGI (HOP-92 NSCLC)

CC(C)(C)c1cc2ccc(C(N)=O)cc2c(=O)[nH]1
> 100 µM: TGI (786-0 renal) | TGI (A498 renal) | TGI (A549 NSCLC) | TGI (ACHN renal) | TGI (CAKI-1 renal) | TGI (CCRF-CEM leukemia) | TGI (COLO 205 colon) | TGI (DLD-1 colon) | TGI (DMS 114 small cell lung) | TGI (DMS 273 small cell lung) | TGI (EKVX NSCLC) | TGI (HCC-2998 colon) | TGI (HCT-116 colon) | TGI (HCT-15 colon) | TGI (HL-60(TB) leukemia) | TGI (HOP-18 NSCLC) | TGI (HOP-62 NSCLC) | TGI (HOP-92 NSCLC) | TGI (HT29 colon) | TGI (IGROV1 ovarian) | TGI (K-562 leukemia) | TGI (KM12 colon) | TGI (KM20L2 colon) | TGI (LOX IMVI melanoma) | TGI (LXFL 529 NSCLC) | TGI (M14 melanoma) | TGI (M19-MEL melanoma) | TGI (MALME-3M melanoma) | TGI (MOLT-4 leukemia) | TGI (NCI-H226 lung) | TGI (NCI-H23 lung) | TGI (NCI-H460 lung) | TGI (NCI-H522 lung) | TGI (OVCAR-3 ovarian) | TGI (OVCAR-4 ovarian) | TGI (OVCAR-5 ovarian) | TGI (OVCAR-8 ovarian) | TGI (RXF 393 renal) | TGI (RXF-631 renal) | TGI (SF-268 CNS) | TGI (SF-295 CNS) | TGI (SF-539 CNS) | TGI (SK-MEL-2 melanoma) | TGI (SK-MEL-28 melanoma) | TGI (SK-MEL-5 melanoma) | TGI (SK-OV-3 ovarian) | TGI (SN12C renal) | TGI (SNB-19 CNS) | TGI (SNB-75 CNS) | TGI (SNB-78 CNS) | TGI (SR leukemia) | TGI (SW-620 colon) | TGI (TK-10 renal) | TGI (U251 CNS) | TGI (UACC-257 melanoma) | TGI (UACC-62 melanoma) | TGI (UO-31 renal)

O=C1C=C[C@@H](COC2OC(CO)C(O)C(O)C2O)O1 (some centres not stated)
14.8 µM and 32.3 µM: TGI (NCI-H460 lung)
> 100 µM and 66.5 µM: TGI (OVCAR-8 ovarian)
85 µM: TGI (UO-31 renal)
24.4 µM and 19 µM: TGI (SN12C renal)
40 µM: TGI (CAKI-1 renal)
13.9 µM and 39.6 µM: TGI (DMS 273 small cell lung)
33.9 µM: TGI (SK-MEL-5 melanoma)
22.8 µM and 27.7 µM: TGI (UACC-257 melanoma)
16.3 µM and 26.8 µM: TGI (M19-MEL melanoma)
50.4 µM and 36.8 µM: TGI (OVCAR-5 ovarian)
8.82 µM: TGI (RXF 393 renal)
36.3 µM and 32.8 µM: TGI (SK-MEL-2 melanoma)
1.82 µM: TGI (P388/ADR leukemia)
38 µM: TGI (KM20L2 colon)
3.81 µM and 19.6 µM: TGI (MCF7 breast)
15.4 µM and 5.22 µM: TGI (HL-60(TB) leukemia)
31.6 µM and 34.5 µM: TGI (XF 498 CNS)
16.1 µM and 15.8 µM: TGI (SW-620 colon)
5.69 µM and 19.2 µM: TGI (HT29 colon)
48.9 µM and 96.9 µM: TGI (NCI-H226 lung)
inactive: GI50 (A549 NSCLC) 16.7 µM | GI50 (COLO 205 colon) 3.44 µM | GI50 (DMS 114 small cell lung) 3.73 µM | GI50 (DMS 273 small cell lung) 2.44 µM | GI50 (HCT-116 colon) 2.63 µM | GI50 (HCT-15 colon) 3.22 µM | GI50 (HL-60(TB) leukemia) 2.75 µM | GI50 (HOP-92 NSCLC) 14.3 µM | GI50 (HT29 colon) 1.62 µM | GI50 (IGROV1 ovarian) 14.2 µM | GI50 (KM12 colon) 3.16 µM | GI50 (KM20L2 colon) 14.4 µM | GI50 (M19-MEL melanoma) 3.8 µM | GI50 (MALME-3M melanoma) 12.5 µM | GI50 (MCF7 breast) 1.24 µM | GI50 (NCI-H226 lung) 17.6 µM | GI50 (NCI-H23 lung) 5.12 µM | GI50 (NCI-H460 lung) 3.68 µM | GI50 (NCI-H522 lung) 2.22 µM | GI50 (OVCAR-3 ovarian) 10.6 µM | GI50 (OVCAR-4 ovarian) 13.2 µM | GI50 (OVCAR-5 ovarian) 28.5 µM | GI50 (OVCAR-8 ovarian) 4.61 µM | GI50 (RPMI-8226 leukemia) 2.45 µM | GI50 (RXF 393 renal) 2.72 µM | GI50 (SF-268 CNS) 4.59 µM | GI50 (SK-MEL-2 melanoma) 15.3 µM | GI50 (SK-MEL-28 melanoma) 11.8 µM | GI50 (SN12C renal) 8.38 µM | GI50 (SNB-19 CNS) 20.6 µM | GI50 (UACC-257 melanoma) 10.2 µM | GI50 (UACC-62 melanoma) 3.03 µM | GI50 (XF 498 CNS) 14.3 µM
14.2 µM and 28.5 µM: TGI (DMS 114 small cell lung)
76.9 µM and 62.6 µM: TGI (A549 NSCLC)
26.1 µM and > 100 µM: TGI (SK-MEL-28 melanoma)
17.8 µM and 62.6 µM: TGI (SF-268 CNS)
11.6 µM and 17.4 µM: TGI (KM12 colon)
34.9 µM and 83.1 µM: TGI (IGROV1 ovarian)
53.2 µM: TGI (SNB-19 CNS)
19.2 µM and 29.7 µM: TGI (NCI-H23 lung)
5.61 µM and 18.4 µM: TGI (NCI-H522 lung)
41.8 µM and 45 µM: TGI (SF-295 CNS)
21.1 µM and 48.6 µM: TGI (MOLT-4 leukemia)
28.9 µM and 29.2 µM: TGI (SN12K1 renal)
10.5 µM and > 100 µM: TGI (HCT-116 colon)
30.3 µM and 36 µM: TGI (HOP-92 NSCLC)
17.6 µM and 18.4 µM: TGI (SF-539 CNS)
30.6 µM: TGI (A498 renal)
21.5 µM and 16.4 µM: TGI (HCT-15 colon)
39.1 µM: TGI (EKVX NSCLC)
14.4 µM and 19.5 µM: TGI (COLO 205 colon)
12 µM and 22.6 µM: TGI (UACC-62 melanoma)
15.8 µM and 16.4 µM: TGI (LOX IMVI melanoma)
31.9 µM: TGI (MALME-3M melanoma)
28.2 µM and 33.6 µM: TGI (OVCAR-4 ovarian)
17.9 µM and 19.1 µM: TGI (DLD-1 colon)
31 µM and 30.9 µM: TGI (U251 CNS)
28 µM and 34.8 µM: TGI (NCI/ADR-RES ovarian)
22.4 µM and 31.5 µM: TGI (OVCAR-3 ovarian)
23.6 µM and > 100 µM: TGI (K-562 leukemia)
13.9 µM and 40.8 µM: TGI (CCRF-CEM leukemia)
> 100 µM: TGI (HCC-2998 colon) | TGI (HOP-18 NSCLC) | TGI (HOP-62 NSCLC) | TGI (SK-OV-3 ovarian)
29.7 µM and 31.8 µM: TGI (SNB-75 CNS)
